Laboratory results reported in US11633394B2, “Substituted alkynylene compounds as anticancer agents” (Aurigene Oncology Limited, priority 2018, dated 2023).

Assays:
Type in all cases: cell-based
[1] = tested on: OCI-Ly10 cells; experiment: Anti proliferative activity in OCI-Ly10 cells (CTG luminescence); details: for inhibition at 1 µM / inhibition at 10 µM: Homo sapiens, OCI-Ly10, 72 h
Experimental: Example 80: Determination of Anti Proliferative Activity in OCI-Ly10 Cells
OCI-Ly10 cells (UHN Canada) were plated at 7500 cells/well in 96 well flat bottom plates (Corning, Cat. No CLS3904) using complete Iscove's Modified Dulbecco's Medium (IMDM. After 6 hours, compounds from the present invention were added to the cells from 10 mM stocks made in DMSO (Sigma, Cat. No D2650). Each concentration of compound was tested in triplicates with DMSO concentration not exceeding a final percentage of 0.1 in the cells. After 72 hours of incubation in CO2 incubator, CTG (Promega, Cat. No G7572) was added to the wells and Luminescence readings were taken in the plate reader. Percent inhibition in proliferation was calculated using Microsoft Excel software. Positive control (100% survival)=Cells in complete media with 0.1% DMSO; Negative control/blank (0% survival)=Media alone containing 0.1% DMSO.

[2] = tested on: NCI-H2122 cells; experiment: Anti proliferative activity in NCI-H2122 cells by XTT assay; details: Homo sapiens, NCI-H2122, 192 h, H2122 cell line; for IC50: 8 days (192 hour) incubation; for viability at 30 µM: 8 days
Experimental: Example 79: Determination of Anti Proliferative Activity in NCI-H2122 Cells by XTT Assay
NCI-H2122 cells (ATCC CRL-5985) were plated at 1000 cells/well in 96 well flat clear bottom plates (Corning, Cat. No 3596) using complete RPMI-1640 media. After 24 hours, compounds of present invention were added to cells from 10 mM stocks made in DMSO (Sigma Cat no. D2650). Each concentration of compound was tested in triplicate with DMSO concentration not exceeding a final percentage of 0.3 in the cells. Complete RPMI-1640 media changed at Day 3 (72 hour) and Day 6 (144 hour) along with compounds of current invention. After 8 days (192 hour) of incubation assay terminated using 50 μl of XTT reagent (Invitrogen, Cat. no X6493). XTT reagent was made by dissolving 1 mg/mi XTT in serum free media with addition of 25 μM Phenazine methosulfate (sigma Cat. no P9625). Absorbance readings were taken in spectrophotometer at 465 nm. The data was analysed using graph pad prism software. Positive control (100% survival)=Cells in complete media with 0.3% DMSO; Negative control/blank (0% survival)=Media alone containing 0.3% DMSO.
(§1) The compounds of the present invention were screened in the above mentioned assay and the results are tabulated below.

[3] = tested on: NCI-H1792 cells; experiment: Anti proliferative activity in NCI-H1792 cells by XTT assay; details: H1792 cell line; for IC50: 72 hours incubation
Experimental: Example 78: Determination of Anti Proliferative Activity in NCI-H1792 Cells by XTT Assay
NCI-H1792 cells (ATCC CRL-5895) were plated at 2000 cells/well in 96 well flat clear bottom plates (Corning, Cat. No 3596) using complete RPMI media. After 24 hours, compounds of present invention were added to cells from 20 mM stocks made in DMSO (Sigma Cat no. D2650). Each concentration of compound was tested in triplicate with DMSO concentration not exceeding a final percentage of 0.3 in the cells. After 72 hours of incubation in CO2 incubator, XTT (Invitrogen, Cat. no X6493) was added to the wells. XTT was dissolved in serum free media at 1 mg/ml and absorbance readings were taken in spectrophotometer at 465 nm. The data was analysed using graph pad prism software. Positive control (100% survival)=Cells in complete media with 0.3% DMSO; Negative control/blank (0% survival)=Media alone containing 0.3% DMSO.
as §1

[4] = Homo sapiens, NCI-H1792, 72 h, at 30 μM, 72 hours

Structure (SMILES) | IC50 [2] [µM] | inhibition at 1 µM [1] [%] | inhibition at 10 µM ([1]; at 10 μM) [%] | viability at 30 µM [2] [%] | other results
C=CC(=O)N1CCN(C(=O)NC(C)C#Cc2ccc(Cl)c(Cl)c2)CC1=O (racemic) [Example 52, 4-acryloyl-N-(4-(3,4-dichlorophenyl)but-3-yn-2-yl)-3-oxopiperazine-1-carboxamide] | 10 to 25 | 3 | 82 | 78 | –
C=CC(=O)N1CCN(C(=NC#N)NC(C)C#Cc2ccc(Cl)c(Cl)c2)CC1 (racemic) [Example 54, (E)-4-acryloyl-N′-cyano-N-(4-(3,4-dichlorophenyl)but-3-yn-2-yl) piperazine-carboximidamide] | – | 37 | 56 | – | IC50 ([3]; Homo sapiens, NCI-H1792, 72 h): < 10 µM; viability at 30 µM [3, 4]: 22%
C=CC(=O)N1CCN(C(=O)NC(C)C#Cc2ccc(Cl)c(Cl)c2)CC1 (single isomer, unassigned) [Example 1a, 4-acryloyl-N-(4-(3,4-dichlorophenyl)but-3-yn-2-yl) piperazine-1-carboxamide] | – | – | – | 26 | IC50 ([3]; Homo sapiens, NCI-H1792, 72 h): < 10 µM; viability at 30 µM [3, 4]: 45%
C=CC(=O)N1CCN(C(=O)NC(C)(C)C#Cc2ccc(Cl)c(Cl)c2)CC1 [Example 3] | – | 12 | 92 | – | IC50 ([3]; Homo sapiens, NCI-H1792, 72 h): < 10 µM; viability at 30 µM [3, 4]: 3%
C=CC(=O)N1CCN(C(=O)NC(C)C#Cc2ccc(F)c(Cl)c2)CC1 (stereo not drawn) [Example 5] | – | 43 | 77 | – | IC50 ([3]; Homo sapiens, NCI-H1792, 72 h): < 10 µM; viability at 30 µM [3, 4]: 57%
C=CC(=O)N1CCN(C(=O)NC2(C#Cc3ccc(Cl)c(Cl)c3)CC2)CC1 [Example 23] | < 10 | 48 | 67 | 21 | –
C=CC(=O)N1CCN(C(=O)NC2(C#Cc3ccc(Cl)c(Cl)c3)CCCC2)CC1 [Example 24] | < 10 | 35 | 68 | – | –
C=CC(=O)N1CC(N2CCN(C(=O)NC(C)C#Cc3ccc(Cl)c(C4(C)CC4)c3)CC2)C1 (stereo not drawn) [Example 29] | < 10 | 42 | 90 | – | –
C=CC(=O)N[C@H]1CC[C@@H](NC(=O)NC(C)C#Cc2ccc(Cl)c(Cl)c2)CC1 (stereo partly drawn) [Example 33] | > 25 | – | – | – | viability at 30 µM [3, 4]: 54%
C=CC(=O)N1CCN(C(=O)NC2(C#Cc3cccc4ccccc34)CC2)CC1 [Example 35] | – | 24 | 67 | – | –
C#Cc1cc(C#CC2(NC(=O)N3CCN(C(=O)C=C)CC3)CC2)ccc1Cl [Example 36] | – | 39 | 65 | – | –
CC(C)/C=C(\C#N)C(=O)N1CCN(C(=O)NC2(C#Cc3ccc(Cl)c(Cl)c3)CC2)CC1 [Example 45, (E)-4-(2-cyano-4-methylpent-2-enoyl)-N-(1-((3,4-dichlorophenyl)ethynyl)cyclopropyl) piperazine-1-carboxamide] | – | 0 | 44 | – | –
C=CS(=O)(=O)N1CCN(C(=O)NC2(C#Cc3ccc(Cl)c(Cl)c3)CC2)CC1 [Example 51, N-(1-((3,4-dichlorophenyl)ethynyl)cyclopropyl)-4-(vinylsulfonyl) piperazine-1-carboxamide] | – | 3 | 52 | 0 | –
C=CC(=O)ON=C1CCN(C(=O)NC(C)C#Cc2ccc(Cl)c(Cl)c2)CC1 (stereo not drawn) [Example 53] | 10 to 25 | – | – | 99 | –
C=CCN(C(=O)C=C)C1CCN(C(=O)NC(C)C#Cc2ccc(Cl)c(Cl)c2)CC1 (stereo not drawn) [Example 58] | – | – | – | 72 | IC50 ([3]; Homo sapiens, NCI-H1792, 72 h): > 25 µM
CC(C#Cc1ccc(Cl)c(Cl)c1)NC(=O)N1CCC(N2C(=O)C=CC2=O)CC1 (stereo not drawn) [Example 59] | < 10 | 25 | 100 | 0 | –
CC(C#Cc1ccc(Cl)c(Cl)c1)NC(=O)N1CCN(C(=O)/C(C#N)=C/N(C)C)CC1 (stereo not drawn) [Example 60] | > 25 | – | – | 90 | –
CC(C#Cc1ccc(Cl)c(Cl)c1)NC(=O)N1CCC(n2ccnc2)CC1 (stereo not drawn) [Example 62] | 10 to 25 | – | – | 33 | –
O=C(/C=C/C(F)(F)F)N1CCN(C(=O)NC2(C#Cc3ccc(Cl)c(Cl)c3)CC2)CC1 [Example 66, (E)-N-(1-((3,4-dichlorophenyl)ethynyl)cyclopropyl)-4-(4,4,4-trifluorobut-2-enoyl) piperazine-1-carboxamide] | < 10 | 75 | 73 | – | –
C=CC(=O)N1CC(C(=O)N2CCN(C(=O)NC3(C#Cc4ccc(Cl)c(Cl)c4)CC3)CC2)C1 [Example 68, 4-(1-acryloylazetidine-3-carbonyl)-N-(1-((3,4-dichlorophenyl)ethynyl)cyclopropyl) piperazine-1-carboxamide] | > 25 | – | – | – | –
C=CC(=O)N1CCC(C(=O)NC(C)C#Cc2ccc(Cl)c(Cl)c2)C1 (stereo not drawn) [Example 71] | – | – | 62 | – | IC50 ([3]; Homo sapiens, NCI-H1792, 72 h): 10 to 25 µM; viability at 30 µM [3, 4]: 26%; % inhibition (at 1 μM) ([1]; 72 hours): 9%
C=CC(=O)N1CCC(C(=O)NC(C)C#Cc2ccc(Cl)c(Cl)c2)C1 (stereo not drawn) [Example 72] | – | – | – | – | IC50 [3]: 10 to 25 µM; % Viability (at 30 μM) ([3]; at 30 μM, 72 hours): 27%; % inhibition (at 1 μM) ([1]; 72 hours): 4%; % inhibition (at 10 μM) ([1]; at 10 μM, 72 hours): 55%
C=CC(=O)NC1(C(=O)NC(C)C#Cc2ccc(Cl)c(Cl)c2)CCCC1 (stereo not drawn) [Example 74] | > 25 | – | – | 60 | –

Now from value to compound, other results behind:

IC50 [2] [µM] | Structure (SMILES) | inhibition at 1 µM [1] [%] | inhibition at 10 µM ([1]; at 10 μM) [%] | viability at 30 µM [2] [%] | other results
10 to 25 | C=CC(=O)N1CCN(C(=O)NC(C)C#Cc2ccc(Cl)c(NC(=O)C3CC3)c2)CC1 (racemic) [Example 41, 4-acryloyl-N-(4-(4-chloro-3-(cyclopropanecarboxamido)phenyl)but-3-yn-2-yl) piperazine-1-carboxamide] | 0 | 36 | – | –
< 10 | CC(C#Cc1ccc(Cl)c(Cl)c1)NC(=O)N1CCN(C(=O)/C=C/C(F)(F)F)CC1 (racemic) [Example 42, (E)-N-(4-(3,4-dichlorophenyl)but-3-yn-2-yl)-4-(4,4,4-trifluorobut-2-enoyl) piperazine-1-carboxamide] | 81 | 62 | 0 | –
10 to 25 | C=CC(=O)N1CCN(C(=O)NC(C)C#Cc2ccc(Oc3ccccc3)c(Cl)c2)CC1 (stereo not drawn) [Example 25] | 3 | 72 | 16 | –
10 to 25 | C=CC(=O)N1CCN(C(=O)NC(C)C#Cc2ccc(N(CC)CC)c(Cl)c2)CC1 (stereo not drawn) [Example 31] | – | – | 19 | –
10 to 25 | C=CC(=O)N1CCN(C(=O)NC(C)C#Cc2ccc(Cl)c(N(CC)CC)c2)CC1 (stereo not drawn) [Example 32] | – | – | 15 | –
< 10 | CC(C#Cc1ccc(Cl)c(Cl)c1)NC(=O)N1CCN(C(=O)/C=C/C(F)(F)F)CC1 (stereo not drawn) [Example 42a, (E)-N-(4-(3,4-dichlorophenyl)but-3-yn-2-yl)-4-(4,4,4-trifluorobut-2-enoyl) piperazine-1-carboxamide] | – | – | – | –
> 25 | CC(C#Cc1ccc(Cl)c(Cl)c1)NC(=O)N1CCN(C(=O)CC#N)CC1 (stereo not drawn) [Example 61] | – | – | 59 | –
< 10 | C=CC(=O)N1CCN(C(=O)NC(C)C#Cc2ccc(C#N)c(C(F)(F)F)c2)CC1 (stereo not drawn) [Example 63] | 49 | 79 | 18 | –
> 25 | C=CC(=O)N1CCN(C(=O)NC(C)C#Cc2ccc(F)cc2)CC1 (stereo not drawn) [Example 64] | – | – | 56 | –
